The values that follow come from patent US20220125765A1, “PHARMACEUTICAL COMBINATIONS COMPRISING MEBENDAZOLE AND A STRONG OR MODERATE CYP1A2 INHIBITOR” (ZEPHAPHARM LTD, priority 2019, published 2022).

In one data set the target is CYP3A4 (Homo sapiens, UniProt P08684). Kind of data set: Cytochrome P450 reaction phenotyping, recombinant CYP3A4 (Bactosomes). As to conditions: human, recombinant enzyme, pH 7.4. The procedure: (§1) Incubations were also performed using control Bactosomes™ (no P450 enzymes present) to reveal any non-enzymatic degradation. Control compounds known to be metabolised specifically by each P450 isoform were included. All incubations were performed singularly for each test compound.
CYP3A4, sequence (P08684 whole entry, canonical isoform): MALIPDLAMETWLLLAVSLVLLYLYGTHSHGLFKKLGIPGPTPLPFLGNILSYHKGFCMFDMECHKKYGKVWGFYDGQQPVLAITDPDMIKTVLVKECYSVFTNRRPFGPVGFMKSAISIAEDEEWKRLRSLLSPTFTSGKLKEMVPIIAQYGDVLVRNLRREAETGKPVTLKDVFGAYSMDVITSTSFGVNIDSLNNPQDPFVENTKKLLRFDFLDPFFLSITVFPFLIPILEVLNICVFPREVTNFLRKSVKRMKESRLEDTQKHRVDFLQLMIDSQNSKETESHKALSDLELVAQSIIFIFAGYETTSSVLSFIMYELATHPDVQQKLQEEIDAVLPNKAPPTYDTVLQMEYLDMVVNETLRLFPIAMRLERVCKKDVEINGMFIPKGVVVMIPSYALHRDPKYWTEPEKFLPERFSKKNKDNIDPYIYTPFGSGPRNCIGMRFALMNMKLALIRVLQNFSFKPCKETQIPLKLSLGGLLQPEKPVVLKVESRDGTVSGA
(§2) Incubations were also performed using control Bactosomes™ (no P450 enzymes present) to reveal any non-enzymatic degradation. Control compounds known to be metabolised specifically by each P450 isoform were included. All incubations were performed singularly for each test compound. […] The reactions were stopped by transferring an aliquot of incubate to quench solvent at the appropriate time points, in a 1:3 ratio. The termination plates were centrifuged at 3,000 rpm for 20 min at 4° C. to precipitate the protein.

The target of the next data set is CYP2D6 (Homo sapiens, UniProt P10635). Kind of data set: Cytochrome P450 reaction phenotyping, recombinant CYP2D6 (Bactosomes). Conditions: human, recombinant enzyme, pH 7.4. The procedure:
as §1, §2

The target in the next data set is T1, CYP2B6 (Homo sapiens, UniProt P20813).
T1 sequence (P20813 1-491): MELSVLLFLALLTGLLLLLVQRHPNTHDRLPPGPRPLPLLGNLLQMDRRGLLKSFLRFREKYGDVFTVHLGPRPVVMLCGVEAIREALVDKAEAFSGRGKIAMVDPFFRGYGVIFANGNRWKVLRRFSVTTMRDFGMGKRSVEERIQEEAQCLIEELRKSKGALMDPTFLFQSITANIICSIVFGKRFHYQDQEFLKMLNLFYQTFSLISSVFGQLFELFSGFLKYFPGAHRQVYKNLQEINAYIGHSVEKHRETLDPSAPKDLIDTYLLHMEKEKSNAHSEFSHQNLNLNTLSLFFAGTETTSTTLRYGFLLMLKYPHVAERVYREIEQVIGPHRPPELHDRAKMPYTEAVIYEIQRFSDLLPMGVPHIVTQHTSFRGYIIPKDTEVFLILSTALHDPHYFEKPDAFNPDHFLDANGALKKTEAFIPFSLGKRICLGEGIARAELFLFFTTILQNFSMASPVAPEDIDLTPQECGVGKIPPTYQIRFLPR
Kind of data set: Cytochrome P450 reaction phenotyping, recombinant CYP2B6 (Bactosomes). As to conditions: CYP2B6, substrate 1 μM. The procedure:
as §1, §2

Data set [1] can be described thus: Ricobendazole microsomal metabolic stability without and with cimetidine or furafylline (Example 8). Conditions: human, liver microsomes; for half-life at 0.1 μM: read-out: t½. Format: in vitro ADME. On the procedure: Incubation in the absence of NADPH was also performed to assess non-CYP mediated stability. Appropriate control compounds were also incubated.
A minus cofactor control incubation was included for each compound tested where 0.1 M phosphate buffer pH 7.4 was added instead of NADPH (minus NADPH). […] A control compound (phenacetin) was included (incubated without and with inhibitors as described above). All incubations were performed singularly for each test compound. Each incubation was carried out for 0, 5, 15, 30 and 45 min. The control (minus NADPH) was incubated for 45 min only.
On the technique in general: Microsomes from liver hold many membrane-bound enzymes, among them those of drug oxidation.

The target of data set [2] is T2, CYP1A2 (Homo sapiens, UniProt P05177).
T2 sequence (P05177 1-516): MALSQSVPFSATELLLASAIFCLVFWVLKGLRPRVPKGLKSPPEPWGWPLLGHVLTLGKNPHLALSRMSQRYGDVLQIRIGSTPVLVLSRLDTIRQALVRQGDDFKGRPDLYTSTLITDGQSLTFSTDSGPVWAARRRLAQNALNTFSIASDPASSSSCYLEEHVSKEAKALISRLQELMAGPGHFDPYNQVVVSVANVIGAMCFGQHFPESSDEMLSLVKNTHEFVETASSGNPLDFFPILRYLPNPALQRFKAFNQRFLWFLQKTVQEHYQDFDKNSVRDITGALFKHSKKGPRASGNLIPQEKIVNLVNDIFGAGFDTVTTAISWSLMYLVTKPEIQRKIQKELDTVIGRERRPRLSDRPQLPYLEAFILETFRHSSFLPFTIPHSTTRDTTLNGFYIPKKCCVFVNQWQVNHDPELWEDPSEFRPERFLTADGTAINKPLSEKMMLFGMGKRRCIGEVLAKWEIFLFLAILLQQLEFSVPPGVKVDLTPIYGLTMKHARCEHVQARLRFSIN
In words: Cytochrome P450 reaction phenotyping, recombinant CYP1A2 (Bactosomes). The procedure: as §1, §2

A further data set concerns the target T3, CYP2C8 (Homo sapiens, UniProt P10632).
T3 sequence (P10632 1-490): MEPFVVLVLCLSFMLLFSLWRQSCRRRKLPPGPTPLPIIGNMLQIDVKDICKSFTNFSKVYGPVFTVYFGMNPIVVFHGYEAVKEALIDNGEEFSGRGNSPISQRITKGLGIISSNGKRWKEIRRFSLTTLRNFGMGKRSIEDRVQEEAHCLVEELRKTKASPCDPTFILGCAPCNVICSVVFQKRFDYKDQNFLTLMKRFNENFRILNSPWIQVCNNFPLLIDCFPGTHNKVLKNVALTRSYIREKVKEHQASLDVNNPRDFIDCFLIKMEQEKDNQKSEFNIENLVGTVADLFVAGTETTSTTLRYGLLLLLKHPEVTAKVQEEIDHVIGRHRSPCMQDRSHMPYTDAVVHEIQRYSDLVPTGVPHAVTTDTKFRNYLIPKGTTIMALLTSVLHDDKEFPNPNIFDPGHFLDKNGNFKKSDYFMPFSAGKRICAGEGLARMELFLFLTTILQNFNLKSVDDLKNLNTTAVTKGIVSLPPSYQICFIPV
Kind of data set: Cytochrome P450 reaction phenotyping, recombinant CYP2C8 (Bactosomes). Conditions: CYP2C8, substrate 1 μM. The procedure: as §1, §2

For the next data set, the target named is CYP2C19 (Homo sapiens, UniProt P33261). Kind of data set: Cytochrome P450 reaction phenotyping, recombinant CYP2C19 (Bactosomes). As to conditions: human, recombinant enzyme, pH 7.4. The procedure:
as §1, §2

The target of another data set is CYP2C9 (Homo sapiens, UniProt P11712). Kind of data set: Cytochrome P450 reaction phenotyping, recombinant CYP2C9 (Bactosomes). Conditions: human, recombinant enzyme, pH 7.4. On the procedure: as §1, §2
CYP2C9, sequence (P11712 whole entry): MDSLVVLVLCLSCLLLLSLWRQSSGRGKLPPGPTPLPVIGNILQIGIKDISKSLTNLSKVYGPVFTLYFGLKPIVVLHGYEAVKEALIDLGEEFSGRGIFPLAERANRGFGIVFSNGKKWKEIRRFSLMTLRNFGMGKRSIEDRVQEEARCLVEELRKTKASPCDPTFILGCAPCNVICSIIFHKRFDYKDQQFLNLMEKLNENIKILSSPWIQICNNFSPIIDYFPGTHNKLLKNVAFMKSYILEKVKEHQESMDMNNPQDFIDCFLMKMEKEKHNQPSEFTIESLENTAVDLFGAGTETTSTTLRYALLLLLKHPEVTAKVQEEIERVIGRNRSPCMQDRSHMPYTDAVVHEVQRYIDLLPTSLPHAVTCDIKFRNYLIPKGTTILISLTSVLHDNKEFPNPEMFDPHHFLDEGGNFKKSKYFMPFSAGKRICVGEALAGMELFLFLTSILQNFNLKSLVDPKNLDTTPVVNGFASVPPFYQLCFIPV
A further data set can be described thus: in vitro. Conditions: human, cryopreserved hepatocytes, probe mebendazole 1 µM (intrinsic clearance).
The test system of data set [3] is human cryopreserved hepatocytes.
Experimental: (§3) The amount of test compound remaining at each time point was analysed by LC-MS/MS. Appropriate control compounds were also incubated.
(§4) The final incubation volume was 500 μL. Appropriate control compounds were included, alongside appropriate vehicle control.
(§5) The reactions were stopped by transferring 50 μL of incubate to 100 μL acetonitrile containing internal standard at the appropriate time points (0, 5, 10, 20, 40 and 60 min). The termination plates were centrifuged at 2500 rpm at 4° C. for 30 min to precipitate the protein.
Data set [4] has the same test system. As to conditions: for reduction of metabolism of mebendazole: initial experiments.
Experimental: as §3, §4, §5
Another data set deals with human BCRP transporter (Homo sapiens, UniProt Q9UNQ0). Conditions: Caco-2.
human BCRP transporter, sequence (Q9UNQ0 whole entry): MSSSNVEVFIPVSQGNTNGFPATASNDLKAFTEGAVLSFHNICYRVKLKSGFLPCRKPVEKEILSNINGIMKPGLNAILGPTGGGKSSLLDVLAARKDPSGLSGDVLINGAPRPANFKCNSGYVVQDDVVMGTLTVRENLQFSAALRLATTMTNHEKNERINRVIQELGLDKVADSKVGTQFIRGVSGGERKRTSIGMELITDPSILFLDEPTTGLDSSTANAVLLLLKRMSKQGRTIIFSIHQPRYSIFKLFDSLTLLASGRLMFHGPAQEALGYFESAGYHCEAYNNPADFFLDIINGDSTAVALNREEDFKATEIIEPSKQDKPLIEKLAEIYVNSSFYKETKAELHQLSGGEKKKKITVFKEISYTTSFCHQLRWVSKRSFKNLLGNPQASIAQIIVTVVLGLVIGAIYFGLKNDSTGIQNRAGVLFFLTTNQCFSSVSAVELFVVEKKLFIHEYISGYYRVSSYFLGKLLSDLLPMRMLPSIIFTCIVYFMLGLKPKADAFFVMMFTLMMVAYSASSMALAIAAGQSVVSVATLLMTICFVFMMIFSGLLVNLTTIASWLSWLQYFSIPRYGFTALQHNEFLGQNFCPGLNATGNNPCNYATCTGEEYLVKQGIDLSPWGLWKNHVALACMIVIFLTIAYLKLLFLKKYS
For data set [5], the system named is human cryopreserved hepatocytes. Kind of data set: Stability in human cryopreserved hepatocytes without and with cimetidine or furafylline (Example 5). Type of data set: in vitro ADME. Conditions: human hepatocytes, largest effect over concentrations tested. The procedure:
The final incubation volume was 500 μL. Two control compounds were included with each species, alongside appropriate vehicle control.
The samples were analysed for mebendazole or ethoxycoumarin using LC-MS/MS.
The final incubation volume was 500 μL.
A positive control compound, ethoxycoumarin, for CYP1A2 was included. […] The samples were analysed for mebendazole or ethoxycoumarin using LC-MS/MS.

A short description of data set [6]: Stability in human liver microsomes without and with cimetidine or furafylline (Example 4). Format: in vitro ADME. Conditions: human liver microsomes, largest effect over concentrations tested. The procedure:
A minus cofactor control incubation was included for each compound tested where 0.1 M phosphate buffer pH 7.4 was added instead of NADPH (minus NADPH). […] The samples were analysed for mebendazole or phenacetin using LC-MS/MS.
A minus cofactor control incubation was included for each compound tested where 0.1 M phosphate buffer pH 7.4 was added instead of cofactor (minus NADPH). […] The samples were analysed for mebendazole or phenacetin using LC-MS/MS.

For data set [7], the system named is human cryopreserved hepatocytes. Kind of data set: Stability in human cryopreserved hepatocytes without and with cimetidine or thiabendazole (Example 6). As to conditions: human hepatocytes, largest effect over concentrations tested.
Experimental: (§6) Mebendazole (1 μM) was incubated with cryopreserved human hepatocytes for 60 min in the absence and presence of cimetidine at 30, 100 and 300 μM) and thiabendazole at 10, 30 and 100 μM and samples taken at the required time points. The amount of test compound remaining at each time point was analysed by LC-MS/MS. Appropriate control compounds were also incubated along with ethoxycoumarin, which was incubated in the absence and presence of cimetidine and thiabendazole.
(§7) The final incubation volume was 500 μL. Two control compounds were included, alongside appropriate vehicle control. A positive control compound, ethoxycoumarin, for CYP1A2 was included. The positive control compound was incubated without inhibitor and in the presence of each inhibitor. The reactions were stopped by transferring 50 μL of incubate to 100 μL acetonitrile containing internal standard at the appropriate time points (0, 5, 10, 20, 40 and 60 min). The termination plates were centrifuged at 2500 rpm at 4° C. for 30 min to precipitate the protein.
Data set [8] concerns the target CYP1A2 (Homo sapiens, UniProt P05177). Conditions: cited from earlier work.
The subject of data set [9] is human cryopreserved hepatocytes. The source holds these as a separate data set.
Experimental: as §6, §7

Read-outs that look alike come from different tables or passages of the source.

CYP2D6, sequence (P10635 whole entry): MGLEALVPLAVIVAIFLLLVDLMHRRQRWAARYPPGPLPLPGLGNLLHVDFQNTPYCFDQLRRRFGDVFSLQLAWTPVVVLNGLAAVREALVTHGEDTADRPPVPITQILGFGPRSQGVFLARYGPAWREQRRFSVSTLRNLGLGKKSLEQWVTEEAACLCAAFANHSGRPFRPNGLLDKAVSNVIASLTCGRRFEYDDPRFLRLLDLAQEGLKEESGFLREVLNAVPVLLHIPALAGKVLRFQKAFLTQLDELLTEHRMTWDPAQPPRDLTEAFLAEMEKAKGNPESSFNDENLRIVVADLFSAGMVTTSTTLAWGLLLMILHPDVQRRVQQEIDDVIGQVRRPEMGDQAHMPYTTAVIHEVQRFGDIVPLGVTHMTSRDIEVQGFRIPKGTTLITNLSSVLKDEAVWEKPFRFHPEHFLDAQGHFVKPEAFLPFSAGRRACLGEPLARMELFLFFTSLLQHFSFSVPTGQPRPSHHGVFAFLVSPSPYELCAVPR
CYP2C19, sequence (P33261 whole entry): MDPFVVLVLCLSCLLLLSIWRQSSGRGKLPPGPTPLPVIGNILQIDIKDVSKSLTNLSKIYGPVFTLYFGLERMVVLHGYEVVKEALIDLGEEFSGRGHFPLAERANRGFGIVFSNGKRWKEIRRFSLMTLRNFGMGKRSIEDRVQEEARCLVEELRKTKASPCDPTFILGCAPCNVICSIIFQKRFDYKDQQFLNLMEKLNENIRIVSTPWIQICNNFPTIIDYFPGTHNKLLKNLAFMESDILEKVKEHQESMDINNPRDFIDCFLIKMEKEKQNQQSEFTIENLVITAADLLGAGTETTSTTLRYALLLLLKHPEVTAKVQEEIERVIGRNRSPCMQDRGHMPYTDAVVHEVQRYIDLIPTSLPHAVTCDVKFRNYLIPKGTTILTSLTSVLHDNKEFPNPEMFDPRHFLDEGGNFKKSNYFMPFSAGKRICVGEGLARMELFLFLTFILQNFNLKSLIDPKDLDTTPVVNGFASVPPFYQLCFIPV
Text for human BCRP transporter: Bidirectional apparent permeability of test compound was quantified by LC-MS/MS and used to determine an efflux ratio.
Experimental for in vitro: as §3, §4, §5

Regarding `CCC[S+]([O-])c1ccc2[nH]c(NC(=O)OC)nc2c1` (centres unmarked) [Ricobendazole, albendazole sulphoxide], the half-life at 1 μM was found to be 8.15 ± 11.4 h at CYP3A4; 7.75 ± 4.55 h at CYP2D6; 4 ± 0.635 h at CYP1A2 [2] (human, recombinant enzyme, pH 7.4); 10.3 ± 10.8 h at CYP2C19; 4.53 ± 2.67 h at CYP2C9. In addition, the “metabolism by recombinant enzyme” value at CYP2B6 and on CYP2C8 was “not metabolised” each time. The microsomal CLint at 0.1 μM came out at 3.15 ± 1.24 µL/min/mg in [1] (pH 7.4, with cimetidine 30 μM, 0.1 μM, 1 mg/mL, cimetidine 30 μM, read-out: CLint); 3.43 ± 1.56 µL/min/mg in data set [1] (pH 7.4, with cimetidine 100 μM, 0.1 μM, 1 mg/mL, cimetidine 100 μM, read-out: CLint); 3.54 ± 1.09 µL/min/mg in [1] (pH 7.4, with cimetidine 300 μM, 0.1 μM, 1 mg/mL, cimetidine 300 μM, read-out: CLint); 1.27 ± 2.47 µL/min/mg in [1] (pH 7.4, with furafylline 3 μM, read-out: CLint); 4.31 ± 2.48 µL/min/mg in data set [1] (pH 7.4, with furafylline 10 μM, read-out: CLint); 2.92 ± 1.75 µL/min/mg in [1] (pH 7.4, with furafylline 30 μM, read-out: CLint). The microsomal CLint at 0.1 μM turned out to be 2.83 ± 1.76 µL/min/mg in data set [1] (pH 7.4, 0.1 μM, 1 mg/mL, no inhibitor, read-out: CLint); 6.63 ± 1.84 µL/min/mg in data set [1] (optimisation, 0.1 μM and 1 mg/mL protein, read-out: intrinsic clearance). Also, the half-life at 0.1 μM in data set [1] (pH 7.4, with cimetidine 30 μM, 0.1 μM, 1 mg/mL, cimetidine 30 μM) was 3.67 h; in data set [1] (pH 7.4, with cimetidine 100 μM, 0.1 μM, 1 mg/mL, cimetidine 100 μM), 3.37 h; in [1] (pH 7.4, with cimetidine 300 μM, 0.1 μM, 1 mg/mL, cimetidine 300 μM), 3.27 h; in data set [1] (pH 7.4, with furafylline 3 μM), 9.08 h; in data set [1] (pH 7.4, with furafylline 10 μM) it was 2.68 h; in data set [1] (pH 7.4, with furafylline 30 μM), 3.95 h. Also, the half-life at 0.1 μM in [1] (pH 7.4, 0.1 μM, 1 mg/mL, no inhibitor) is 4.08 h. In addition, in data set [1] (optimisation, 1 μM and 0.5 mg/mL protein, read-out: intrinsic clearance), the microsomal CLint at 1 μM is 4.39 ± 2.77 µL/min/mg. Further, the “% remaining” value at CYP1A2 [2] (CYP1A2, substrate 1 μM, 45 min) is 85%.

By inhibition is commonly meant the drop in the measured response relative to a control, in per cent. Read a high inhibition as a response far below the control. In “in vitro”, `COCCCC/C(=N\OCCN)c1ccc(C(F)(F)F)cc1` [Fluvoxamine] came in with an inhibition at 10 µM of 95%. Also, the “reduction of metabolism of mebendazole” value in data set [3] (fluvoxamine 10 to 300 μM, maximum as seen at 10 μM) is reported as “up to 20.2 fold”; in data set [4] (at 30 μM fluvoxamine), 2.3 fold.

As for `C[C@]12CC[C@@H]3c4ccc(OS(=O)(=O)O)cc4CC[C@H]3[C@@H]1CCC2=O` [Estrone-3-sulfate], the “efflux ratio (ER) of positive control substrate” value on human BCRP transporter is listed as 128.

As for `Cc1nc2c([nH]1)c(=O)n(C)c(=O)n2Cc1ccco1` [Furafylline], in data set [5], the “decrease of mebendazole metabolism in presence of the inhibitor” value (“decrease … of the inhibitor” below) was found to be 9.1 fold and the “inhibition of intrinsic clearance of mebendazole” value (shortened to “inhibition … of mebendazole”) is recorded as 89%. Also, the “inhibition … of mebendazole” value in data set [6] is 99%.

With `CN/C(=N/CCSCc1nc[nH]c1C)NC#N` [Cimetidine], the “effect on metabolism of mebendazole” value in data set [4] (in the presence of cimetidine (30-300 μM)) is “not decreased”. Moreover, the entries for the “decrease … of the inhibitor” value in [5] and in data set [7] were 1.3 fold and 1.2 fold, respectively. In addition, the “inhibition … of mebendazole” value in [5] was 25%; in data set [7], 19%; in [6], 32%.

In turn, `Cc1cccc(C)c1OCC(C)N` (centres unmarked) [Mexiletine] had an inhibition at 30 µM in the data set “in vitro” of 87%. For the same compound, the “reduction of metabolism of mebendazole” value was “up to 7.8 fold” in data set [3] (mexiletine 10 to 300 μM, maximum as seen at 30 μM) and 2.7 fold in [4] (at 10 μM mexiletine).

In general, IC50 refers to the concentration that gives 50% inhibition. What is called Ki is the equilibrium dissociation constant of an inhibitor or competing ligand from its target. For `c1ccc2[nH]c(-c3cscn3)nc2c1` [Thiabendazole], at CYP1A2 [8] (read-out: IC50 value for CYP1A2 inhibition), the IC50 is 830 nM. For the same compound, the Ki at CYP1A2 [8] (read-out: inhibition constant (Ki) value for CYP1A2 inhibition) was 1540 nM. Also, in data set [9], the “decrease … of the inhibitor” value was determined as 6.4 fold and the “inhibition … of mebendazole” value is listed as 84%.
